The numbers were not newly measured in US20260284157A1, “POWDER COMPOSITION COMPRISING A HAEMOSTATIC AGENT” (WOMED, priority 2023, published 2026), which cites them from elsewhere.

For this data set the following is noted: certificate of analysis of the product (Sigma Aldrich).

Take Thrombin: the “activity of the protein” value is more than 400 NIH units/mg protein.
